Literature values in patent US20190000794A1, “TRANSMUCOSAL CANNABINOID FORMULATION INCLUDING A CHITOSAN EXCIPEINT” (priority 2017, published 2019).

Conditions: oral consumption; first pass metabolism in the liver

For `CCCCCc1cc(O)c2c(c1)OC(C)(C)[C@@H]1CCC(C)=C[C@@H]21` [THC, trans-Δ^9-tetrahydrocannabinol], which “fraction of THC consumed orally that is metabolized through first pass metabolism” value is on record?
The value was “up to 97%”.
